Measurements as given in patent US12419889B2, “Methods of treating chronic spontaneous urticaria using a bruton's tyrosine kinase inhibitor” (NOVARTIS AG, priority 2019, dated 2025).

Target: T1, BTK (Mus musculus, UniProt P35991)
T1 construct: from tissue; host or cells: mouse spleen
Test: BTK occupancy in spleen in mouse RPA and PCA models
Format: in vivo
Settings: mouse RPA, 5 h after dosing
Experimental: The in vivo PD effects of an irreversible BTK inhibitor like compound (I) are determined by the extent and duration of covalent BTK occupancy by the inhibitor. BTK occupancy after treatment with Compound of Formula (I) (also referenced to as Compound (I)) was measured in an ex vivo immunoassay. The fraction of unoccupied BTK protein was assayed after in vitro incubation with a covalent biotinylated BTK probe, since compound (I) and the probe bind to BTK in a mutually exclusive manner. Unoccupied BTK, as well as total BTK relative protein levels were determined in lysates of selected tissues and levels of unoccupied BTK were normalized to total BTK protein levels in the same samples.
Oral treatment with compound (I) at a single dose of 3, 10, 30 and 100 mg/kg, given 2 hours prior to induction of the RPA response, reduced skin swelling in a dose-related manner. […] (FIG. 2)
The effects of compound (I) on acute skin hypersensitivity were also assessed after two oral doses of compound (I) in the mouse of model of passive cutaneous anaphylaxis (PCA) (Ovary 1958). The mouse PCA model was used at a low dose of sensitizing IgE antibody to minimize complement-dependent anaphylatoxins (Schafer et al. 2013, The journal of allergy and clinical immunology, 131(2), pp. 541; Hata et al. 1998, Journal of Experimental Medicine, 187(8), pp. 1235). […] (FIG. 3). Spleen occupancy at 2.5 hours post last dose ranged from 89.1 to 99.7% (representing peak occupancy) (FIG. 4).

T1 sequence (P35991 whole entry): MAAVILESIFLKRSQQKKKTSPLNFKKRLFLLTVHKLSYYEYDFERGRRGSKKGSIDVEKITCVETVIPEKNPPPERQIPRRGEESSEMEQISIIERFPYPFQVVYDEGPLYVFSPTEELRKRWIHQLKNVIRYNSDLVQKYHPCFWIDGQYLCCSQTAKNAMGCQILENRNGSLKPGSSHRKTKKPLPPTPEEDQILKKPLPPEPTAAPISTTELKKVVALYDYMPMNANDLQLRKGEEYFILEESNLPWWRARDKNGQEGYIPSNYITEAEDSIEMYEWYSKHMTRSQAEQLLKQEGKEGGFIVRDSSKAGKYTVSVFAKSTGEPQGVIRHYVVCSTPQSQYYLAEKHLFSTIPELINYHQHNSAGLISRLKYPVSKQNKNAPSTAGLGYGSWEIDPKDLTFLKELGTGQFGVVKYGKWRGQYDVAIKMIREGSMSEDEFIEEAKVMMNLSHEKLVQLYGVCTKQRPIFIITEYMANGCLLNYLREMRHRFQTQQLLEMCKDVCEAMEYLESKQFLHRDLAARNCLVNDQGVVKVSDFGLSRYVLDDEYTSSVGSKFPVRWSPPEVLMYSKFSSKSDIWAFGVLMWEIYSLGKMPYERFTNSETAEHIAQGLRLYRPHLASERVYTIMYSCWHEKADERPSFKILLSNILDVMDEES

**Q.** Which receptor occupancy at 3 mg/kg (3 mg/kg) does the source give for `C=CC(=O)N(C)CCOc1c(N)ncnc1-c1cc(F)cc(NC(=O)c2ccc(C3CC3)cc2F)c1C` [Compound (I), N-(3-(6-Amino-5-(2-(N-methylacrylamido)ethoxy)pyrimidin-4-yl)-5-fluoro-2-methylphenyl)-4-cyclopropyl-2-fluorobenzamide] here?
**A.** The receptor occupancy at 3 mg/kg was 68.1%.

**Q.** And the receptor occupancy at 10 mg/kg (10 mg/kg)?
**A.** Its receptor occupancy at 10 mg/kg is 82.1%.

**Q.** And the receptor occupancy at 30 mg/kg (30 mg/kg)?
**A.** Its receptor occupancy at 30 mg/kg is 91.3%.

**Q.** And the receptor occupancy at 100 mg/kg (100 mg/kg)?
**A.** Its receptor occupancy at 100 mg/kg is 99.3%.
